Read-outs that look alike come from different tables or passages of the source.
Target: GCN2 (Homo sapiens, UniProt Q9P2K8)
Assay: GCN2 enzymatic endpoint assay: phosphorylation of GFP-eIF2α measured by TR-FRET (Lanthascreen)
Assay type: biochemical
Procedure, shortened: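 Reaction started with 2 μM ATP and 80 nM GFP-labelled eIF2α substrate at room temperature, stopped with EDTA after 90 minutes. Phospho-eIF2α detected by terbium-labelled antibody TR-FRET; activity taken as 520 nm (fluorescein) to 495 nm (terbium) emission ratio.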

[1] = tested as described in Example 77, compound and/or hydrochloride, dihydrochloride or trifluoroacetic acid salt, read-out: IC 50 Activity
[2] = GCN2 biochemical IC50, 4 nM GCN2, 2 μM ATP, 80 nM GFP-eIF2α, 90 min RT, read-out: GCN2 activity

Sequence of GCN2 (Q9P2K8 whole entry): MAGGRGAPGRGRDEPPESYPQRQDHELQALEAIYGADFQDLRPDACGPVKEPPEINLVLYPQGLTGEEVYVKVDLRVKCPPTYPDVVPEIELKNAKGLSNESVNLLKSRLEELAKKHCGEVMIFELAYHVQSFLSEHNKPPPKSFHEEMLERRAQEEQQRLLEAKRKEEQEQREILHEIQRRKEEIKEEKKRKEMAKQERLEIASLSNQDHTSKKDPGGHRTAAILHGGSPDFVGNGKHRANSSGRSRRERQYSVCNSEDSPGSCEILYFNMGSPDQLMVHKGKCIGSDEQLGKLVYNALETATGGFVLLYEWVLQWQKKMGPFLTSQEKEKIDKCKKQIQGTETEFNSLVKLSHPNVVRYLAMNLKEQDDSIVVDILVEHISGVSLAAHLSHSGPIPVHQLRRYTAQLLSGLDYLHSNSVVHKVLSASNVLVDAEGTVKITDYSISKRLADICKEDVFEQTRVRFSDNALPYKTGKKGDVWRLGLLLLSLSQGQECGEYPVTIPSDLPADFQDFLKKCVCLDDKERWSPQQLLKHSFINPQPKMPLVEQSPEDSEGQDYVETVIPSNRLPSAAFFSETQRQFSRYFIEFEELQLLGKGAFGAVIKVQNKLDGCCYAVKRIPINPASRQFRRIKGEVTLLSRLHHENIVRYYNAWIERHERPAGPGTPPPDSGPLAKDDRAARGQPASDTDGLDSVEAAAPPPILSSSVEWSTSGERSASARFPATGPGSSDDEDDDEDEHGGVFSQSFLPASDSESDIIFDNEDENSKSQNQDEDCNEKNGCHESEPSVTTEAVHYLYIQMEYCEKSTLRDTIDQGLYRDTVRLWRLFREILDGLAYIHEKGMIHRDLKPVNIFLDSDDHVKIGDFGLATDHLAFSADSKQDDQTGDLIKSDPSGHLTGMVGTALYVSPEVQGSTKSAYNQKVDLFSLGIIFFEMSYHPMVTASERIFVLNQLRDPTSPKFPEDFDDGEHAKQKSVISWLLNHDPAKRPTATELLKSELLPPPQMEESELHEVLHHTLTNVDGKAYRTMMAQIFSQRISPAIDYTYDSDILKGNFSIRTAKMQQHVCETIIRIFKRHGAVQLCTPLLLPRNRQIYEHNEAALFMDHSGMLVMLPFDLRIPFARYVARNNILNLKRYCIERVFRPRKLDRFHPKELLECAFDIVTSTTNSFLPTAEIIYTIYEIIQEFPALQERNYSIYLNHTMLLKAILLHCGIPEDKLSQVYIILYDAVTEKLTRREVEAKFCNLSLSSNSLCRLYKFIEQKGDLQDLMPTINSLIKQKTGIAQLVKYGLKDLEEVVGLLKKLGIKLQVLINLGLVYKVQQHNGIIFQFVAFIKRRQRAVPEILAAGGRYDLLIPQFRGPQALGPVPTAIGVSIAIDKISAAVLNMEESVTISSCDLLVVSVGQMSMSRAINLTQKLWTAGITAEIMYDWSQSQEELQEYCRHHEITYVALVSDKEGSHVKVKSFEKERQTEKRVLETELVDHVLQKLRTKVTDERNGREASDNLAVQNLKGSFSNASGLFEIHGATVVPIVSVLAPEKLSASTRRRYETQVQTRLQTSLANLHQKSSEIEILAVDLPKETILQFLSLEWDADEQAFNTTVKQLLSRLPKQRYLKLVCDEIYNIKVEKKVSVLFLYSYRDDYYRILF

Question: How did the IC50 [1] turn out when CN(CC(C)(C)O)C(=O)[C@]1(C)CC[C@@H](Nc2ncc3c(Br)nn(-c4cc(F)c5ncccc5c4)c3n2)C1 [(1R,3R)-3-[[3-bromo-1-(8-fluoro-6-quinolyl)pyrazolo[3,4-d]pyrimidin-6-yl]amino]-N-(2-hydroxy-2-methyl-propyl)-N,1-dimethyl-cyclopentanecarboxamide] was run?
Answer: < 25 nM

Question: COC(=O)C1CN(C(=O)[C@@H]2CC[C@@H](Nc3ncc4c(Br)nn(-c5ccc6ncccc6c5)c4n3)C2)CCN1 (mixture of isomers) was tested. Which IC50 [1] did it give?
Answer: 25 to 200 nM

Question: For CNC(=O)[C@]1(C)CC[C@@H](Nc2ncc3c(Br)nn(-c4cc(C#N)cc(OC5CNC5)c4)c3n2)C1 [(1R,3R)-3-[[1-[3-(azetidin-3-yloxy)-5-cyano-phenyl]-3-bromo-pyrazolo[3,4-d]pyrimidin-6-yl]amino]-N,1-dimethyl-cyclopentanecarboxamide], which IC50 [1] is on record?
Answer: 25 to 200 nM

Question: How did the IC50 [1] turn out when CNC(=O)[C@@]1(C)CC[C@@H](Nc2ncc3c(Br)nn(-c4ccc5nccnc5c4)c3n2)C1 [(1S,3R)-3-((3-bromo-1-(quinoxalin-6-yl)-1H-pyrazolo[3,4-d]pyrimidin-6-yl)amino)-N,1-dimethylcyclopentane-1-carboxamide] was run?
Answer: 500 to 1000 nM

Question: Which IC50 [1] does the source give for N#Cc1cc(-n2nc(Br)c3cnc(N[C@@H]4CC[C@@H](C(=O)NC5CCS(=O)(=O)CC5)C4)nc32)cc2cccnc12 [(1R,3R)-3-((3-bromo-1-(8-cyanoquinolin-6-yl)-1H-pyrazolo[3,4-d]pyrimidin-6-yl)amino)-N-(1,1-dioxidotetrahydro-2H-thiopyran-4-yl)cyclopentane-1-carboxamide] here?
Answer: 25 to 200 nM

Question: For CN1CN(C(=O)C2(C)CC[C@@H](Nc3ncc4c(Br)nn(-c5cc(F)c6ncccc6c5)c4n3)C2)CC1=O (stereo partly drawn) [1-[(3R)-3-[[3-bromo-1-(8-fluoro-6-quinolyl)pyrazolo[3,4-d]pyrimidin-6-yl]amino]-1-methyl-cyclopentanecarbonyl]-3-methyl-imidazolidin-4-one], which IC50 [1] is on record?
Answer: < 25 nM

Question: For CNC(=O)[C@]1(C)CC[C@@H](Nc2ncc3c(Br)nn(-c4cc(Cl)cc(CNS(C)(=O)=O)c4)c3n2)C1 [(1R,3R)-3-[[3-bromo-1-[3-chloro-5-(methanesulfonamidomethyl)phenyl]pyrazolo[3,4-d]pyrimidin-6-yl]amino]-N,1-dimethyl-cyclopentanecarboxamide], which IC50 [1] is on record?
Answer: 25 to 200 nM

Question: With CN[C@]1(C)CC[C@@H](Nc2ncc3c(Br)nn(-c4ccc(-c5nnc(C)s5)cc4)c3n2)C1 as the compound, how does the IC50 [1] read?
Answer: 25 to 200 nM

Question: How did the IC50 [2] turn out when Brc1nn(-c2ccc3ncccc3c2)c2nc(N[C@@H]3CCC(N4CCOCC4)C3)ncc12 (mixture of isomers) [Example 7, 3-bromo-N-(3-morpholinocyclopentyl)-1-(quinolin-6-yl)-1H-pyrazolo[3,4-d]pyrimidin-6-amine] was run?
Answer: 25 to 200 nM

Question: For CNC(=O)[C@]1(C)CC[C@@H](Nc2ncc3c(Br)nn(-c4ccc(-c5nnc(C)s5)c(CCNCC(F)(F)F)c4)c3n2)C1 [(1R,3R)-3-[[3-bromo-1-[4-(5-methyl-1,3,4-thiadiazol-2-yl)-3-[2-(2,2,2-trifluoroethylamino)ethyl]phenyl]pyrazolo[3,4-d]pyrimidin-6-yl]amino]-N,1-dimethyl-cyclopentanecarboxamide], which IC50 [1] is on record?
Answer: 25 to 200 nM

Question: With C[C@@H]1C(=O)N(C)CCN1C(=O)[C@@H]1CC[C@@H](Nc2ncc3c(Br)nn(-c4cc(C#N)c5ncccc5c4)c3n2)C1 [6-[3-bromo-6-[[(1R,3R)-3-[(2R)-2,4-dimethyl-3-oxo-piperazine-1-carbonyl]cyclopentyl]amino]pyrazolo[3,4-d]pyrimidin-1-yl] quinoline-8-carbonitrile] as the compound, how does the IC50 [1] read?
Answer: < 25 nM

Question: For CNC(=O)[C@]1(C)CC[C@@H](Nc2ncc3c(Br)nn(-c4ccc(-c5nnc(CCOC)s5)cc4)c3n2)C1, which IC50 [1] is on record?
Answer: 25 to 200 nM

Question: How did the IC50 [1] turn out when CNC(=O)[C@]1(CO)CC[C@@H](Nc2ncc3c(Br)nn(-c4ccc(-c5nnc(C)s5)cc4)c3n2)C1 [(1R,3R)-3-[[3-bromo-1-[4-(5-methyl-1,3,4-thiadiazol-2-yl)phenyl]pyrazolo [3,4-d]pyrimidin-6-yl]amino]-1-(hydroxymethyl)-N-methyl-cyclo-pentanecarboxamide] was run?
Answer: 25 to 200 nM

Question: Which IC50 [1] does the source give for C[C@@]1(C(=O)N2CNC(=O)C2)CC[C@@H](Nc2ncc3c(Br)nn(-c4cc(F)c5ncccc5c4)c3n2)C1 [1-[(1R,3R)-3-[[3-bromo-1-(8-fluoro-6-quinolyl)pyrazolo[3,4-d]pyrimidin-6-yl]amino]-1-methyl-cyclopentanecarbonyl] imidazolidin-4-one] here?
Answer: < 25 nM

Question: Which IC50 [1] does the source give for CNC(=O)c1cc(Cl)cc(-n2nc(Br)c3cnc(N[C@@H]4CC[C@@](C)(C(=O)NC)C4)nc32)c1 [3-[3-bromo-6-[[(1R,3R)-3-methyl-3-(methylcarbamoyl)cyclopentyl]amino]pyrazolo[3,4-d]pyrimidin-1-yl]-5-chloro-N-methyl-benzamide] here?
Answer: 25 to 200 nM

Question: How did the IC50 [1] turn out when CNC(=O)[C@@]1(C)CC[C@@H](Nc2ncc3c(Br)nn(-c4cc(N5CCNCC5)c5ncccc5c4)c3n2)C1 [(1S,3R)-3-[[3-bromo-1-(8-piperazin-1-yl-6-quinolyl)pyrazolo[3,4-d]pyrimidin-6-yl]amino]-N,1-dimethyl-cyclopentane-carboxamide] was run?
Answer: 25 to 200 nM

Question: O=C([C@@H]1CC[C@@H](Nc2ncc3c(Br)nn(-c4ccc5ncccc5c4)c3n2)C1)N1CCN[C@@H](CCO)C1 [((1R,3R)-3-((3-bromo-1-(quinolin-6-yl)-1H-pyrazolo[3,4-d]pyrimidin-6-yl)amino)cyclo-pentyl)((S)-3-(2-hydroxyethyl)piperazin-1-yl) methanone] was tested. Which IC50 [1] did it give?
Answer: 25 to 200 nM

Question: How did the IC50 [2] turn out when CNC(=O)C[C@H]1C[C@H](Nc2ncc3c(Br)nn(-c4cc(Cl)cc([C@H](C)N)c4)c3n2)C1 [Example 71, 2-((1S,3r)-3-((1-(3-((S)-1-aminoethyl)-5-chlorophenyl)-3-bromo-1H-pyrazolo[3,4-d]pyrimidin-6-yl)amino)cyclobutyl)-N-methylacetamide] was run?
Answer: 25 to 200 nM

Question: Which IC50 [1] does the source give for CNC(=O)[C@@H]1CC[C@@H](Nc2ncc3c(Br)nn(-c4cnc5c(C#N)cccc5c4)c3n2)C1 [(1R,3R)-3-[[3-bromo-1-(8-cyano-3-quinolyl)pyrazolo[3,4-d]pyrimidin-6-yl]amino]-N-methyl-cyclopentanecarboxamide] here?
Answer: 25 to 200 nM

Question: With CNC(=O)C1(CCC#N)CC[C@@H](Nc2ncc3c(Br)nn(-c4ccc(-c5nnc(C)s5)c(CCC#N)c4)c3n2)C1 (stereo partly drawn) [(3R)-3-[[3-bromo-1-[3-(2-cyanoethyl)-4-(5-methyl-1,3,4-thiadiazol-2-yl)phenyl]pyrazolo[3,4-d]pyrimidin-6-yl]amino]-1-(2-cyanoethyl)-N-methyl-cyclopentanecarboxamide] as the compound, how does the IC50 [1] read?
Answer: 25 to 200 nM

Question: For O=C(CO)N1CCN(C(=O)[C@@H]2CC[C@@H](Nc3ncc4c(Br)nn(-c5ccc6ncccc6c5)c4n3)C2)CC1 [1-(4-((1R,3R)-3-((3-bromo-1-(quinolin-6-yl)-1H-pyrazolo[3,4-d]pyrimidin-6-yl)amino)cyclopentane-1-carbonyl)piperazin-1-yl)-2-hydroxyethan-1-one], which IC50 [1] is on record?
Answer: 25 to 200 nM

Question: Which IC50 [1] does the source give for CNC(=O)[C@]1(C)CC[C@@H](Nc2ncc3c(Br)nn(-c4ccc(-n5cncn5)cc4)c3n2)C1 [(1R,3R)-3-[[3-bromo-1-[4-(1,2,4-triazol-1-yl)phenyl]pyrazolo[3,4-d]pyrimidin-6-yl]amino]-N,1-dimethyl-cyclopentane-carboxamide] here?
Answer: 25 to 200 nM

Question: How did the IC50 [1] turn out when CNC(=O)[C@]1(C)CC[C@@H](Nc2ncc3c(Br)nn(-c4ccc(-c5nnc(C(C)(C)N)s5)c(F)c4)c3n2)C1 [(1R,3R)-3-[[1-[4-[5-(1-amino-1-methyl-ethyl)-1,3,4-thiadiazol-2-yl]-3-fluoro-phenyl]-3-bromo-pyrazolo[3,4-d]pyrimidin-6-yl]amino]-N,1-dimethyl-cyclopentanecarboxamide] was run?
Answer: < 25 nM

Question: Which IC50 [1] does the source give for CNC(=O)[C@]1(C)CC[C@@H](Nc2ncc3c(Br)nn(-c4ccc(OCCO)c(Cl)c4)c3n2)C1 [(1R,3R)-3-[[3-bromo-1-[3-chloro-4-(2-hydroxyethoxy)phenyl]pyrazolo [3,4-d]pyrimidin-6-yl]amino]-N,1-dimethyl-cyclopentanecarboxamide] here?
Answer: 25 to 200 nM

Question: For Cc1nnc(-c2ccc(-n3nc(Br)c4cnc(N[C@@H]5CC[C@@](C)(O)C5)nc43)cc2C#N)s1 [Example 67, 5-(3-bromo-6-(((1R,3R)-3-hydroxy-3-methylcyclopentyl)amino)-1H-pyrazolo[3,4-d]pyrimidin-1-yl)-2-(5-methyl-1,3,4-thiadiazol-2-yl)benzonitrile], which IC50 [2] is on record?
Answer: < 25 nM

Question: CNC(=O)[C@]1(C)CC[C@@H](Nc2ncc3c(Br)nn(-c4cc(CN5CCNCCC5=O)c5ncccc5c4)c3n2)C1 [(1R,3R)-3-[[3-bromo-1-[8-[(7-oxo-1,4-diazepan-1-yl)methyl]-6-quinolyl]pyrazolo[3,4-d]pyrimidin-6-yl]amino]-N,1-dimethyl-cyclopentanecarboxamide] was tested. Which IC50 [1] did it give?
Answer: 25 to 200 nM

Question: CNC(=O)[C@]1(C)CC[C@@H](Nc2ncc3c(Br)nn(-c4ccc(-c5nnc(C)s5)c(CCN(C)C)c4)c3n2)C1 [Example 63, (1R,3R)-3-((3-bromo-1-(3-(2-(dimethylamino)ethyl)-4-(5-methyl-1,3,4-thiadiazol-2-yl)phenyl)-1H-pyrazolo[3,4-d]pyrimidin-6-yl)amino)-N,1-dimethylcyclopentane-1-carboxamide; 2,2,2-trifluoroacetic acid] was tested. Which IC50 [2] did it give?
Answer: 25 to 200 nM

Question: How did the IC50 [1] turn out when COCCNC(=O)[C@@H]1CC[C@@H](Nc2ncc3c(Br)nn(-c4cc(F)c5ncccc5c4)c3n2)C1 [(1R,3R)-3-((3-bromo-1-(8-fluoroquinolin-6-yl)-1H-pyrazolo[3,4-d]pyrimidin-6-yl)amino)-N-(2-methoxyethyl)cyclopentane-1-carboxamide] was run?
Answer: 25 to 200 nM

Question: How did the IC50 [2] turn out when CNC(=O)[C@]1(C)CC[C@@H](Nc2ncc3c(Br)nn(-c4ccc5nccnc5c4)c3n2)C1 (single isomer, unassigned) [Example 11] was run?
Answer: 25 to 200 nM

Question: Which IC50 [1] does the source give for CNC(=O)[C@]1(C)CC[C@@H](Nc2ncc3c(Br)nn(-c4cccc(CCS(C)(=O)=O)c4)c3n2)C1 [(1R,3R)-3-[[3-bromo-1-[3-(2-methyl-sulfonylethyl)phenyl]pyrazolo[3,4-d]pyrimidin-6-yl]amino]-N,1-dimethyl-cyclopentanecarboxamide] here?
Answer: 25 to 200 nM

— patent US11046699B2, “Pyrazolo-pyrimidin-amino-cycloalkyl compounds and their therapeutic uses” (RAPT THERAPEUTICS, INC., priority 2018, dated 2021)
